This note sets out measurements from patent US12252524B2, “GIP/GLP1 co-agonist compounds” (Eli Lilly and Company, priority 2018, dated 2025).

Each structure is given as a SMILES string. Numbered stars: 1 amine (or outer) side, 2 acyl side, 3 side chain; on linkers, the order of the positions; unused ones are H or OH. Square brackets hold non-standard residues; d marks the D form. Side chains are listed from the residue outwards. Peptide text beside a SMILES is read from it. * marks the point of attachment. C20 diacid = O=C(O)CCCCCCCCCCCCCCCCCCC(=O)*; C18 diacid = O=C(O)CCCCCCCCCCCCCCCCC(=O)*; γGlu = O=C(O)[C@H](CCC(=O)[*:2])N[*:1]; αMeF = C[C@](N)(Cc1ccccc1)C(=O)O; αMeL = CC(C)C[C@](C)(N)C(=O)O; AEEA = NCCOCCOCC(=O)O; Aib = CC(C)(N)C(=O)O Bounds are passed on as bounds.

The target of test [1] is T1, gastric inhibitory peptide receptor (GIPR) (Homo sapiens, UniProt P48546).
T1 sequence (P48546 22-466): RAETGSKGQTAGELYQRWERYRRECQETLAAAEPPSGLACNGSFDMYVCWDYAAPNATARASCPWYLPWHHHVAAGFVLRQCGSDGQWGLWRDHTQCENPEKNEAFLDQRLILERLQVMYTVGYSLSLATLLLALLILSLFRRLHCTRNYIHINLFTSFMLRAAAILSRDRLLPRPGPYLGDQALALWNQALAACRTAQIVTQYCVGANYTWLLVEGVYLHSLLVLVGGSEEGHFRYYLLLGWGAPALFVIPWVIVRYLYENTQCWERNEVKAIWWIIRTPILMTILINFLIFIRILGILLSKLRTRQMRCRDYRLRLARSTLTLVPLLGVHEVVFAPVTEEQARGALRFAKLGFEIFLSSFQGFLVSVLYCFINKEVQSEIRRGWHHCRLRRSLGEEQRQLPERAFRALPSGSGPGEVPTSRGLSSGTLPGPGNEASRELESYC
Nature of the test: cAMP pharmacological functional assay in presence of casein, hGIPR. Type of test: cell-based. Conditions: HEK293 cells expressing hGIPR, 0.1% Casein, geometric mean; read-out: hGIPR cAMP Rel EC50 nM (SEM, n).

Another test addresses T2, human Gcg receptor (Homo sapiens, UniProt P47871).
T2 construct: expressed in transfected cells; crude membranes
Nature of the test: [125I]-Glucagon binding (SPA), human Gcg receptor. Conditions: read-out: hGLcgR Ki, nM (SEM, n). The essentials:
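Cell pellets were lysed in hypotonic Tris buffer, pH 7.5, homogenized, and spun at low then high speed to give crude membranes. Ki was derived from the fitted IC50.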

Test [2] deals with T3, human GLP-1R (Homo sapiens, UniProt P43220). Nature of the test: GLP-1R HEK293 cell membrane [35S]GTPγS binding assay. Conditions: HEK293 cell membranes expressing human GLP-1R, [35S]GTPγS binding; read-out: hGLP1R GTPgS Rel EC50 nM (SEM, n). Set-up: expressed in transfected cells; host or cells: HEK293 cells expressing human GLP-1R; membranes. Type of test: biochemical. In outline: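 Membranes from HEK293 cells expressing the receptor incubated with peptide and […] [35S]GTPγS in HEPES pH 7.4 buffer with NaCl, MgCl2, saponin and BSA, 30 min at room temperature. Gαs-bound label captured by anti-Gαs antibody/SPA beads and counted; EC50 from four-parameter logistic fit.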
T3 sequence (P43220 24-463): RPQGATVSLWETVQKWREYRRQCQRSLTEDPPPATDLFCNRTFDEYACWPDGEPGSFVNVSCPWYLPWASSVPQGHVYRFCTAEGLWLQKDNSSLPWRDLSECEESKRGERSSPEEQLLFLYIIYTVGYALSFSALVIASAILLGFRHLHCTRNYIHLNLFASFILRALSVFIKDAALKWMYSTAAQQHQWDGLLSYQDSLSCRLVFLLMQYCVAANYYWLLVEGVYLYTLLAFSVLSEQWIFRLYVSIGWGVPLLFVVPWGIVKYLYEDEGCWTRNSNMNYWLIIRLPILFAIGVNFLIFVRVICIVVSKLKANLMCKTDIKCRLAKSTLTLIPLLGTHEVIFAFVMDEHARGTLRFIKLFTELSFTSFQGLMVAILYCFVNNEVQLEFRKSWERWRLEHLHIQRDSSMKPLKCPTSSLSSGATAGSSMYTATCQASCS
(GTPγS resists hydrolysis and so accumulates on activated G proteins.)

Test [3] concerns the target T3, human GLP-1R. Nature of the test: GLP-1R CHO cell β-arrestin recruitment assay. The class given is cell-based. Set-up: host or cells: CHO-K1 PathHunter cells, assay-ready frozen. As to conditions: for EC50: CHO-K1 cells, PathHunter β-arrestin-2 recruitment, 0.1% casein, read-out: hGLP1R B-Arrestin2 Rel EC50 uM (SEM, n); for hGLP1R B-Arrestin2 % Top: normalized to GLP-1 maximum control. The essentials:
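PathHunter CHO-K1 cells with ProLink-tagged human GLP-1R and enzyme-acceptor-tagged β-arrestin-2 treated with serially diluted peptides in assay buffer containing 0.1% hydrolyzed casein, 90 min at 37 °C.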
In general terms: Arrestin recruitment assays detect the binding of arrestin to an activated receptor.

T2 sequence (P47871 26-477): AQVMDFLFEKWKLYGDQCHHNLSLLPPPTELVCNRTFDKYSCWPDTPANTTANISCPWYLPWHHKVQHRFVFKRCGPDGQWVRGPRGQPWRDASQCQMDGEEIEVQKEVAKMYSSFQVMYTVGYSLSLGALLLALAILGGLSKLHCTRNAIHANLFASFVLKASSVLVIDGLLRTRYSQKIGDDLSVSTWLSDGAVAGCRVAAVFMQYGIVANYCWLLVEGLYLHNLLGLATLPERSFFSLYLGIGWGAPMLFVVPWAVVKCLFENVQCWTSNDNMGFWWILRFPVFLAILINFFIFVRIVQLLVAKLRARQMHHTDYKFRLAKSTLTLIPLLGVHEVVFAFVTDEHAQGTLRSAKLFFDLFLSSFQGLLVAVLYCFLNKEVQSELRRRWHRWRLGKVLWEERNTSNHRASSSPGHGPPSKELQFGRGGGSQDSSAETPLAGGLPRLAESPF

What is called EC50 is the concentration at which the effect is half-maximal. A word on the Ki: it is the dissociation constant of the complex between target and ligand, obtained from inhibition or displacement. Regarding `CC[C@H](C)[C@H](NC(=O)[C@H](CC(C)C)NC(=O)[C@H](Cc1ccc(O)cc1)NC(=O)[C@H](CCC(=O)O)NC(=O)[C@@H](NC(=O)[C@H](Cc1ccccc1)NC(=O)[C@H](CCC(=O)O)NC(=O)C(C)(C)NC(=O)[C@H](CCC(N)=O)NC(=O)[C@H](C)NC(=O)[C@H](CCCCNC(=O)COCCOCCNC(=O)COCCOCCNC(=O)CC[C@H](NC(=O)CCCCCCCCCCCCCCCCCCC(=O)O)C(=O)O)NC(=O)[C@H](CCCCN)NC(=O)[C@H](CC(=O)O)NC(=O)[C@H](CC(C)C)NC(=O)[C@](C)(CC(C)C)NC(=O)[C@@H](NC(=O)[C@H](CO)NC(=O)[C@H](Cc1ccc(O)cc1)NC(=O)[C@H](CC(=O)O)NC(=O)[C@H](CO)NC(=O)[C@@H](NC(=O)[C@H](Cc1ccccc1)NC(=O)[C@@H](NC(=O)CNC(=O)[C@H](CCC(=O)O)NC(=O)C(C)(C)NC(=O)[C@@H](N)Cc1ccc(O)cc1)[C@@H](C)O)[C@@H](C)O)[C@@H](C)CC)[C@@H](C)CC)C(=O)N[C@@H](C)C(=O)NCC(=O)NCC(=O)N1CCC[C@H]1C(=O)N[C@@H](CO)C(=O)N[C@@H](CO)C(=O)NCC(=O)N[C@@H](C)C(=O)N1CCC[C@H]1C(=O)N1CCC[C@H]1C(=O)N1CCC[C@H]1C(=O)N[C@@H](CO)C(N)=O` [Example 289] (H-Y[Aib]EGTFTSDYSI[αMeL]LDKK([AEEA-AEEA-γGlu-C20 diacid])AQ[Aib]EFIEYLIAGGPSSGAPPPS-NH2), the EC50 in test [1] came out at 0.0228 nM; at human GLP-1R [2], 0.404 nM; on human GLP-1R [3] it was 0.0124 µM. Also, the Ki at human Gcg receptor is greater than 1050 nM. At human GLP-1R [3], the “hGLP1R B-Arrestin2 % Top” value was determined as 51.3%.
The like results for `CC[C@H](C)[C@H](NC(=O)[C@H](CC(C)C)NC(=O)[C@H](Cc1ccc(O)cc1)NC(=O)[C@H](CCC(=O)O)NC(=O)[C@@H](NC(=O)[C@H](Cc1ccccc1)NC(=O)[C@H](C)NC(=O)C(C)(C)NC(=O)[C@H](CCC(N)=O)NC(=O)[C@H](C)NC(=O)[C@H](CCCCNC(=O)COCCOCCNC(=O)COCCOCCNC(=O)CC[C@H](NC(=O)CCCCCCCCCCCCCCCCC(=O)O)C(=O)O)NC(=O)[C@H](CCCCN)NC(=O)[C@H](CC(=O)O)NC(=O)[C@H](CC(C)C)NC(=O)[C@H](CC(C)C)NC(=O)[C@@H](NC(=O)[C@H](CO)NC(=O)[C@H](Cc1ccc(O)cc1)NC(=O)[C@H](CC(=O)O)NC(=O)[C@H](CO)NC(=O)[C@@H](NC(=O)[C@](C)(Cc1ccccc1)NC(=O)[C@@H](NC(=O)CNC(=O)[C@H](CCC(=O)O)NC(=O)C(C)(C)NC(=O)[C@@H](N)Cc1ccc(O)cc1)[C@@H](C)O)[C@@H](C)O)[C@@H](C)CC)[C@@H](C)CC)C(=O)N[C@@H](CCC(=O)O)C(=O)NCC(=O)NCC(=O)N1CCC[C@H]1C(=O)N[C@@H](CO)C(=O)N[C@@H](CO)C(=O)NCC(N)=O` [Example 301] (H-Y[Aib]EGT[αMeF]TSDYSILLDKK([AEEA-AEEA-γGlu-C18 diacid])AQ[Aib]AFIEYLIEGGPSSG-NH2) were, in that order, 0.0346 nM, 0.435 nM, 0.00267 µM, 44.4 nM and 93.7%.
The corresponding values for `CC[C@H](C)[C@H](NC(=O)[C@H](CC(C)C)NC(=O)[C@H](Cc1ccc(O)cc1)NC(=O)[C@H](CCC(=O)O)NC(=O)[C@@H](NC(=O)[C@H](Cc1ccccc1)NC(=O)[C@H](C)NC(=O)C(C)(C)NC(=O)[C@H](CCC(N)=O)NC(=O)[C@H](C)NC(=O)[C@H](CCCCNC(=O)COCCOCCNC(=O)COCCOCCNC(=O)CC[C@H](NC(=O)CCCCCCCCCCCCCCCCC(=O)O)C(=O)O)NC(=O)[C@H](CCC(=O)O)NC(=O)[C@H](CC(=O)O)NC(=O)[C@H](CC(C)C)NC(=O)[C@](C)(CC(C)C)NC(=O)[C@@H](NC(=O)[C@H](CO)NC(=O)[C@H](Cc1ccc(O)cc1)NC(=O)[C@H](CC(=O)O)NC(=O)[C@H](CO)NC(=O)[C@@H](NC(=O)[C@H](Cc1ccccc1)NC(=O)[C@@H](NC(=O)CNC(=O)[C@H](CCC(=O)O)NC(=O)C(C)(C)NC(=O)[C@@H](N)Cc1ccc(O)cc1)[C@@H](C)O)[C@@H](C)O)[C@@H](C)CC)[C@@H](C)CC)C(=O)N[C@@H](CCC(=O)O)C(=O)NCC(=O)NCC(=O)N1CCC[C@H]1C(=O)N[C@@H](CO)C(=O)N[C@@H](CO)C(=O)NCC(N)=O` [Example 303] (H-Y[Aib]EGTFTSDYSI[αMeL]LDEK([AEEA-AEEA-γGlu-C18 diacid])AQ[Aib]AFIEYLIEGGPSSG-NH2) are 0.0254 nM, 0.547 nM, 0.0179 µM, 502 nM and 47.7%.
In the case of `CC[C@H](C)[C@H](NC(=O)[C@H](CC(C)C)NC(=O)[C@H](Cc1ccc(O)cc1)NC(=O)[C@H](CCC(=O)O)NC(=O)[C@@H](NC(=O)[C@H](Cc1ccccc1)NC(=O)[C@H](C)NC(=O)C(C)(C)NC(=O)[C@H](CCC(N)=O)NC(=O)[C@H](C)NC(=O)[C@H](CCCCNC(=O)COCCOCCNC(=O)COCCOCCNC(=O)CC[C@H](NC(=O)CCCCCCCCCCCCCCCCC(=O)O)C(=O)O)NC(=O)[C@H](CCCCN)NC(=O)[C@H](CC(=O)O)NC(=O)[C@H](CC(C)C)NC(=O)[C@H](CC(C)C)NC(=O)[C@@H](NC(=O)[C@H](CO)NC(=O)[C@H](Cc1ccc(O)cc1)NC(=O)[C@H](CC(=O)O)NC(=O)[C@H](CO)NC(=O)[C@@H](NC(=O)[C@H](Cc1ccccc1)NC(=O)[C@@H](NC(=O)CNC(=O)[C@H](CCC(=O)O)NC(=O)C(C)(C)NC(=O)[C@@H](N)Cc1ccc(O)cc1)[C@@H](C)O)[C@@H](C)O)[C@@H](C)CC)[C@@H](C)CC)C(=O)N[C@@H](C)C(=O)NCC(=O)NCC(=O)N1CCC[C@H]1C(=O)N[C@@H](CO)C(=O)N[C@@H](CO)C(=O)NCC(=O)N[C@@H](C)C(=O)N1CCC[C@H]1C(=O)N1CCC[C@H]1C(=O)N1CCC[C@H]1C(=O)N[C@@H](CO)C(N)=O` [Example 316] (H-Y[Aib]EGTFTSDYSILLDKK([AEEA-AEEA-γGlu-C18 diacid])AQ[Aib]AFIEYLIAGGPSSGAPPPS-NH2), the EC50 in test [1] came to 0.024 nM; on human GLP-1R [2], 0.766 nM; at human GLP-1R [3] it was 0.00608 µM. Further, the Ki on human Gcg receptor was 654 nM. Besides, at human GLP-1R [3], the “hGLP1R B-Arrestin2 % Top” value is reported as 26.1%.
